Experimental data as given in patent publication US20240316051A1, “A PHARMACEUTICAL COMBINATION AND USE THEREOF” (Ascentage Pharma (Suzhou) Co., Ltd., priority 2021, published 2024).

Assays:
Type in all cases: in vivo, mice
[1] = tested on: NCI-H226 (BAP1mut, CDKN2Adel, FGFR high) xenograft; experiment: NCI-H226 xenograft model (Examples 18-19); settings: Compound 73 50 mg/kg, orally, once per day, 35 days
Protocol: (§1) A subcutaneous xenograft tumor model of human tumor immunodeficient mice was established by cell inoculation: tumor cells in logarithmic growth phase were collected, counted, resuspended in 1×PBS, and the cell suspension concentration was adjusted to 2.5-5×10^7/mL. The tumor cells were inoculated subcutaneously in the right side of immunodeficient mice with a 1 ml syringe ([…]), 5-10×10^6/0.2 mL/mouse. All animal experiments were strictly in accordance with the specifications for the use and management of experimental animals in GenePharma Co., Ltd. and Suzhou Ascentage Pharma Co., Ltd. The calculation of relevant parameters refers to the Chinese NMPA “Guidelines for Non-Clinical Research Techniques of Cytotoxic Anti-tumor Drugs”.
Animal body weight and tumor size were measured twice weekly during the experiment. The state of the animal and the presence or absence of death were observed every day. The growth of tumor and the effects of treatment on normal behavior of animals were monitored routinely, specifically involving experimental animal activity, feeding and drinking, weight gain or loss, eyes, clothing hair and other abnormalities. The deaths and clinical symptoms observed during the experiment were recorded in the raw data. […] The plasma and tumor samples were frozen at −80° C. for ready-to-use.
(§2) Tumor volume (TV) is calculated as: TV=a×b^2/2, wherein a and b represent the length and width of the tumor to be measured, respectively.
(§3) The relative tumor volume (RTV) is calculated as: RTV=Vt/V1, wherein V1 is the tumor volume at the start of grouping and administration, and Vt is the tumor volume measured on the t day after administration. […]
Use of mRECIST (Gao et al., 2015) measured tumor responses included stable disease (SD), partial tumor regression (PR), and complete regression (CR), determined by comparing tumor volume change at day t to its baseline: tumor volume change (%)=(Vt−V1)/V1. […] For each time t, the average of tumor volume changes from t=1 to t was also calculated. […] Body weight of animals were monitored simultaneously. […]

[2] = tested on: malignant pleural mesothelioma (MPM) PDX model (FGFR1high; BAP1mut); experiment: Subcutaneous malignant pleural mesothelioma (MPM) PDX model (Example 20); settings: Compound 73 100 mg/kg, Compound C 50 mg/kg, each orally every other day, 76 days; alone or combined
Protocol: as §1
(§4) Animal body weight and tumor size were measured twice weekly during the experiment. The state of the animal and the presence or absence of death were observed every day. The growth of tumor and the effects of treatment on normal behavior of animals were monitored routinely, specifically involving experimental animal activity, feeding and drinking, weight gain or loss, eyes, clothing hair and other abnormalities. The deaths and clinical symptoms observed during the experiment were recorded in the raw data. All operations for administration and measurement of mouse body weight and tumor volume were performed in a clean bench. According to the requirements of the experimental protocol, after the end of the last administration, plasma and tumor tissues were collected, weighed and photographed. The plasma and tumor samples were frozen at −80° C. for ready-to-use.
as §2, §3
Change of body weight (%)=(measured body weight-body weight at the start of grouping)/body weight at the start of grouping×100%. […]
According to the description by Clarke R., Issues in experimental design and endpoint analysis in the study of experimental cytotoxic agents in vivo in breast cancer and other models [J]. Breast Cancer Research & Treatment, 1997, 46(2-3): 255-278, synergy analysis was evaluated using the following formula: synergy factor=((A/C)×(B/C))/(AB/C); A=RTV value of drug A alone group; B=RTV value of drug B alone group; C=RTV value of the solvent control group, and AB=RTV value of the A and B combination group. […]

[3] = tested on: BAP1 mut mesothelioma PDX model; experiment: Subcutaneous BAP1 mut mesothelioma PDX model (Example 21); settings: Compound 73 100 mg/kg orally once per day, Compound C 50 mg/kg orally every other day, 36 days; alone or combined
Protocol: as §1, §4, §2
(§5) The relative tumor volume (RTV) is calculated as: RTV=Vt/V1, wherein V1 is the tumor volume at the start of grouping and administration, and Vt is the tumor volume measured on the t day after administration.
(§6) The evaluation index of anti-tumor activity is the relative tumor proliferation rate T/C (%), and the calculation formula thereof is: relative tumor proliferation rate T/C (%)=(TRTV/CRTV)×100%, TRTV is the RTV of treatment group, CRTV is the RTV of solvent control group.
(§7) Change of body weight (%)=(measured body weight-body weight at the start of grouping)/body weight at the start of grouping×100%.
(§8) A dose of drug is considered to be severely toxic if the body weight of mouse is reduced by more than 20% or the number of drug-related deaths exceeds 20%.
In this experiment, subcutaneous BAP1 mut mesothelioma PDX model was established (Lide Biotech) to evaluate the anti-tumor effect of Compound 73 in combination with Compound C. […]

22RV1 prostate xenograft = experiment: Subcutaneous 22RV1 prostate xenograft model (Example 24)
Protocol: as §1, §4, §2, §5, §6, §7, §8
According to the description by Clarke R., Issues in experimental design and endpoint analysis in the study of experimental cytotoxic agents in vivo in breast cancer and other models [J]. Breast Cancer Research & Treatment, 1997, 46(2-3): 255-278, synergy analysis was evaluated using the following formula: synergy factor=((A/C)×(B/C))/(AB/C); A=RTV value of drug A alone group; B=RTV value of drug B alone group; C=RTV value of the solvent control group, and AB=RTV value of the A and B combination group.
In this experiment, subcutaneous 22RV1 prostate xenograft model was established to evaluate the anti-tumor effect of Compound 73 in combination with Compound C. The dosing regimen was as follows: • Compound C: 100 mg/kg, orally, every other day, for a total of 28 days; • Compound 73: 100 mg/kg, orally, once per day, for a total of 28 days;
The dosing regimen of each drug in the dosing regimen for the combination is the same as the dosing regimen for the single drug, for a total of 28 days.

CC(C)N1Cc2cc(C(F)(F)F)ncc2-c2cnc(NCc3c(F)ccc4c3CCO4)n3cnc(c23)C1=O [Compound 73, 12-(((5-fluoro-2,3-dihydrobenzofuran-4-yl)methyl)amino)-4-isopropyl-7-(trifluoromethyl)-4,5-dihydro-3H-2,4,8,11,12a-pentaazabenzo[4,5]cycloocta[1,2,3-cd]inden-3-one]
T/C (%) [1]: 48.6% | tumor response (mRECIST) [1]: all the mice achieving stable disease (SD) | RTV @ D 76 [2]: 3.06 | T/C (%) @ D 76 [2]: 53% | RTV @ D 36 [3]: 5.43 | T/C (%) @ D 36 [3]: 37.22% | RTV@ D 26 (22RV1 prostate xenograft; 22RV1 xenograft, day 26, Compound 73 100 mg/kg orally once per day, Compound C 50 mg/kg (table) orally every other day): 7.91 ± 0.74 | T/C(%) @ D 26 (22RV1 prostate xenograft; 22RV1 xenograft, day 26, Compound 73 100 mg/kg, Compound C 50 mg/kg (table)): 49.89% | RTV@ D 29 (22RV1 prostate xenograft; 22RV1 xenograft, day 29): 9.28 ± 0.61 | RTV@ D 32 (22RV1 prostate xenograft; 22RV1 xenograft, day 32): 11.53 ± 0.68 | T/C value (22RV1 prostate xenograft; day 26, Compound C 100 mg/kg orally every other day, Compound 73 100 mg/kg orally once per day, alone or combined): 49.89%
